In patent US9707229B2, “Compositions and methods for treating an infection” (CMPD LICENSING, LLC, priority 2015, dated 2017):

Tests used:
Type in all cases: cell-based
Candida species = experiment: Expected efficacy of antifungal agents
Aspergillus flavus = experiment: Expected efficacy of antifungal agents
Aspergillus terreus = experiment: Expected efficacy of antifungal agents
Aspergillus niger = experiment: Expected efficacy of antifungal agents
Fusarium species = experiment: Expected efficacy of antifungal agents
Aspergillus fumigatus = experiment: Expected efficacy of antifungal agents
Scedosporium apiospermum = experiment: Expected efficacy of antifungal agents
Leishmania infantum = experiment: Expected efficacy of antifungal agents
[1] = system: Paracoccidioides brasiliensis; experiment: Expected efficacy of antifungal agents
Histoplasma capsulatum = conditions: expected efficacy
Coccidioides immitis = conditions: expected efficacy
Leishmania donovani = experiment: Expected efficacy of antifungal agents
Blastomyces dermatitidis = experiment: Expected efficacy of antifungal agents
Cryptococcus neoformans = experiment: Expected efficacy of antifungal agents
Sporothrix schenckii = experiment: Expected efficacy of antifungal agents
Histoplasma duboisii = conditions: expected efficacy
[2] = system: Trichophyton mentagrophytes; experiment: Expected efficacy of antifungal agents
Trichophyton rubrum = experiment: Expected efficacy of antifungal agents

C[C@@H](c1ncncc1F)[C@](O)(Cn1cncn1)c1ccc(F)cc1F [Voriconazole]
yes: efficacy against Candida species (Candida species) | efficacy against Aspergillus flavus (Aspergillus flavus) | efficacy against Aspergillus terreus (Aspergillus terreus) | efficacy against Aspergillus niger (Aspergillus niger) | efficacy against Fusarium species (Fusarium species) | efficacy against Aspergillus fumigatus (Aspergillus fumigatus) | efficacy against Scedosporium apiospermum (Scedosporium apiospermum)

C[C@@H]1[C@H](O)[C@@H](C)/C=C/C=C/C=C/C=C/C=C/C=C/C=C/[C@H](O[C@@H]2O[C@H](C)[C@@H](O)[C@H](N)[C@@H]2O)C[C@@H]2O[C@](O)(C[C@@H](O)C[C@@H](O)[C@H](O)CC[C@@H](O)C[C@@H](O)CC(=O)O[C@H]1C)C[C@H](O)[C@H]2C(=O)O [Amphotericin]
yes: efficacy against Leishmania infantum (Leishmania infantum) | efficacy against Candida species (Candida species) | efficacy against Aspergillus flavus (Aspergillus flavus) | efficacy against Aspergillus terreus (Aspergillus terreus) | efficacy against Paracoccidioides brasiliensis [1] | efficacy against Histoplasma capsulatum (Histoplasma capsulatum) | efficacy against Coccidioides immitis (Coccidioides immitis) | efficacy against Aspergillus niger (Aspergillus niger) | efficacy against Leishmania donovani (Leishmania donovani) | efficacy against Blastomyces dermatitidis (Blastomyces dermatitidis) | efficacy against Cryptococcus neoformans (Cryptococcus neoformans) | efficacy against Aspergillus fumigatus (Aspergillus fumigatus)

Itraconazole
yes: efficacy against Candida species (Candida species) | efficacy against Aspergillus flavus (Aspergillus flavus) | efficacy against Sporothrix schenckii (Sporothrix schenckii) | efficacy against Paracoccidioides brasiliensis [1] | efficacy against Histoplasma duboisii (Histoplasma duboisii) | efficacy against Coccidioides immitis (Coccidioides immitis) | efficacy against Trichophyton mentagrophytes [2] | efficacy against Blastomyces dermatitidis (Blastomyces dermatitidis) | efficacy against Cryptococcus neoformans (Cryptococcus neoformans) | efficacy against Trichophyton rubrum (Trichophyton rubrum) | efficacy against Aspergillus fumigatus (Aspergillus fumigatus)
